Assay results as given in ChEMBL document CHEMBL5038569, “Targeting RECQL5 Functions, by a Small Molecule, Selectively Kills Breast Cancer in Vitro and in Vivo” (J Med Chem, 2021).
The source made the active and inactive calls. The calls are words filed in the database; no cut-off is given here.

Columns and labels:
MCF7 [1] = test: Induction of DNA damage in RECQL5 knock out human MCF7 cells assessed as double strand breaks by measuring increase in gamma-H2AX foci formation incubated for 24 hrs by immunofluorescence microscopic analysis; format: functional, cell-based
MCF7 [2] = test: Induction of DNA damage in human MCF7 cells expressing wild type RECQL5 assessed as double strand breaks by measuring increase in phosphorylation of CHK1 at S345 residue at 20 uM measured up to 24 hrs by Western blot analysis; format: functional, cell-based; conditions: time hrs <=24
MCF7 [3] = test: Stabilization of RECQL5-RAD51 complex in human MCF7 cells expressing wild type RECQL5 assessed as increase in accumulation of nucleus-bound RECQL5 and RAD51 at 20 uM measured after 4 to 24 hrs by Western blot analysis; format: cell-based; conditions: time 4-24 hrs
MCF7 [4] = test: Induction of apoptosis in human MCF7 cells expressing wild type RECQL5 assessed as increase in sub-G1 cell population measured after 72 hrs by propidium iodide/RNase A staining based flow cytometric analysis; format: functional; conditions: dose 2.5-20 µM
MCF7 [5] = test: Cytotoxicity against human MCF7 cells with shRNA-mediated WRN depletion assessed as reduction in cell viability at 6 to 25 uM measured after 8 to 10 days by clonogenic survival assay; format: functional, cell-based; conditions: dose 6-25 µM, time 8-10 day
T47D [6] = test: Induction of DNA damage in RECQL5 knock out human T47D cells assessed as double strand breaks by measuring increase in gamma-H2AX foci formation incubated for 24 hrs by immunofluorescence microscopic analysis; format: functional, cell-based
MCF7 [7] = test: Induction of DNA damage in RECQL5 knock out human MCF7 cells assessed as double strand breaks by measuring increase in phosphorylation of ATR at S428 residue at 20 uM measured up to 24 hrs by Western blot analysis; format: functional, cell-based; conditions: time hrs <=24
T47D [8] = test: Inhibition of homologous recombinant repair in RECQL5 knock out human T47D cells assessed as stabilization of RAD51-RECQL5 interaction by measuring increase in RAD51 foci formation at 20 uM measured after 4 to 24 hrs by immunofluorescence microscopic analysis; format: functional, cell-based; conditions: time 4-24 hrs
MCF7 [9] = test: Effect on NHEJ-mediated double strand break repair in human MCF7 cells expressing wild type RECQL5 assessed as accumulation of DNA-dependent protein kinase on chromatin at 20 uM measured up to 24 hrs by Western blot analysis; format: cell-based; conditions: time hrs <=24
[10] = Chronic toxicity in […] mouse assessed as change in stool texture at 100 mg/kg, po administered as single dose via gavage measured for 30 days; format: organism-based; conditions: in vivo, 720 h, time 30 day
[11] = Toxicity in nude mouse xenografted with human MCF7 cells assessed as morphological changes in spleen at 50 mg/kg, po administered via oral gavage and measured after 30 days; format: organism-based; conditions: in vivo, 720 h, time 30 day
MCF7 [12] = test: Induction of DNA damage in RECQL5 knock out human MCF7 cells assessed as double strand breaks by measuring increase in phosphorylation of CHK1 at S345 residue at 20 uM measured up to 24 hrs by Western blot analysis; format: functional, cell-based; conditions: time hrs <=24
T47D [13] = test: Induction of DNA damage in human T47D cells expressing wild type RECQL5 assessed as double strand breaks by measuring increase in gamma-H2AX foci formation incubated for 24 hrs by immunofluorescence microscopic analysis; format: functional, cell-based; conditions: dose 0-20 µM
MCF7 [14] = test: Effect on homologous recombinant repair in human MCF7 cells expressing wild type RECQL5 assessed as accumulation of MRE11 protein on chromatin at 20 uM incubated for 4 to 24 hrs by Western blot analysis; format: functional, cell-based; conditions: time 4-24 hrs, TDE = time-dependent effect
MCF7 [15] = test: Induction of DNA damage in human MCF7 cells expressing wild type RECQL5 assessed as double strand breaks by measuring increase in phosphorylation of p53 at S15 residue at 20 uM measured up to 24 hrs by Western blot analysis; format: functional, cell-based; conditions: time hrs <=24
[16] = Selectivity ratio of IC20 for cytotoxicity against RECQL5 knock out human MCF7 cells to IC20 for cytotoxicity against human MCF7 cells expressing RECQL5-WT; format: functional
MCF7 [17] = test: Effect on NHEJ-mediated double strand break repair in RECQL5 knock out human MCF7 cells assessed as accumulation of DNA-dependent protein kinase on chromatin at 20 uM measured up to 24 hrs by Western blot analysis; format: cell-based; conditions: time hrs <=24
MCF7 [18] = test: Induction of DNA damage in human MCF7 cells expressing wild type RECQL5 assessed as double strand breaks by measuring increase in phosphorylation of RPA2 at 20 uM measured after 4 to 24 hrs by Western blot analysis; format: functional, cell-based; conditions: time 4-24 hrs, TDE = time-dependent effect
MCF7 [19] = test: Cytotoxicity against RECQL5 knock out human MCF7 cells expressing wild type RECQL5-FLAG assessed as reduction in colony formation at 10 uM measured after 8 to 10 days by clonogenic survival assay; format: functional, cell-based; conditions: time 8-10 day
[20] = Cytotoxicity against human MCF-10A cells expressing RECQL5 assessed as cell growth inhibition measured after 72 hrs by MTT assay; format: toxicity, cell-based
MCF7 [21] = test: Reversal of RECQL5 knock out resistance phenotype in human MCF7 cells expressing RFP assessed as reduction in cell viability at 6 to 25 uM measured after 72 hrs by MTT assay; format: functional, cell-based; conditions: dose 6-25 µM
MCF7 [22] = test: Induction of mitotic catastrophe phenotype in human MCF7 cells assessed as fused nucleus at 20 uM pretreated with cisplatin for 8 hrs followed by compound addition and measured after 24 hrs by immunofluorescence microscopic analysis; format: functional, cell-based
MCF7 [23] = test: Inhibition of homologous recombinant repair in RECQL5 knock out human MCF7 cells expressing SceGFP/iGFP mutants assessed as I-SceI induced generation of resected double stand breaks by measuring GFP-expressing cells at 10 uM measured after 48 hrs by flow cytometry analysis; format: functional, cell-based
MCF7 [24] = test: Effect on homologous recombinant repair in human MCF7 cells expressing wild type RECQL5 assessed as accumulation of RAD50 protein on chromatin at 20 uM incubated for 4 to 24 hrs by Western blot analysis; format: functional, cell-based; conditions: time 4-24 hrs, TDE = time-dependent effect
MCF7 [25] = test: Inhibition of homologous recombinant repair in RECQL5 knock out human MCF7 cells assessed as stabilization of RAD51-RECQL5 interaction by measuring increase in RAD51 foci formation at 20 uM measured after 4 to 24 hrs by immunofluorescence microscopic analysis; format: functional, cell-based; conditions: time 4-24 hrs
MCF7 [26] = test: Induction of cell sensitization to cisplatin in cisplatin-resistant human MCF-7 cells assessed as reduction in colony formation at 5 uM measured after 8 to 10 days by clonogenic survival assay; format: functional, cell-based; conditions: time 8-10 day
[27] = Toxicity in […] mouse assessed as fold change in creatinine level at 100 mg/kg, po administered as single dose via gavage measured after 30 days relative to control; format: organism-based; conditions: in vivo, 720 h, time 30 day
MCF7 [28] = test: Induction of DNA damage in RECQL5 knock out human MCF7 cells assessed as double strand breaks by measuring increase in phosphorylation of CHK2 at T68 residue at 20 uM measured up to 24 hrs by Western blot analysis; format: functional, cell-based; conditions: time hrs <=24
MCF7 [29] = test: Induction of mitotic catastrophe phenotype in human cisplatin-resistant MCF7 cells assessed as micronucleus formation at 20 uM pretreated with cisplatin for 8 hrs followed by compound addition and measured after 24 hrs by immunofluorescence microscopic analysis; format: functional, cell-based
MCF7 [30] = test: Cytotoxicity against RECQL5 knock out human MCF7 cells assessed as inhibition of colony formation measured after 8 to 10 days by clonogenic survival assay; format: functional, cell-based

With `O=C(Nc1cc(C(F)(F)F)cc(C(F)(F)F)c1)N[C@@H](c1ccccc1)c1nnc(SCc2ccccc2)o1` the Activity (MCF7 [1]) was “inactive”, the Activity (MCF7 [2]) was “Active” and the Activity (MCF7 [3]) was “inactive”. For the same compound, the Activity (MCF7 [4]) was “Dose-Dependent Effect”, the Activity (MCF7 [5]) was “Active” and the Activity (T47D [6]) was “inactive”. The Activity (MCF7 [7]) was “inactive”, the inhibition (T47D [8]) was “inactive” and the Activity (MCF7 [9]) was “inactive”. For the same compound, the Activity [10] was “Non-Toxic”, the Activity [11] was “Non-Toxic” and the Activity (MCF7 [12]) was “inactive”. For the same compound, the Activity (T47D [13]) was “Dose-Dependent Effect”, the Activity (MCF7 [14]) was “Tde” and the Activity (MCF7 [15]) was “Active”. For the same compound, the selectivity ratio [16] was 2.7, the Activity (MCF7 [17]) was “inactive” and the Activity (MCF7 [18]) was “Tde”. The Activity (MCF7 [19]) was “Active”, the IC20 at 72 h [20] was 33.4 µM and the Activity (MCF7 [21]) was “inactive”. For the same compound, the Activity (MCF7 [22]) was “Active”, the inhibition (MCF7 [23]) was “inactive” and the Activity (MCF7 [24]) was “Tde”. The inhibition (MCF7 [25]) was “inactive”, the Activity (MCF7 [26]) was “Active” and the “fold change (FC)” value [27] was 1.05. For the same compound, the Activity (MCF7 [28]) was “inactive”, the Activity (MCF7 [29]) was “Active” and the IC50 (MCF7 [30]) was 19.6 µM.
